Residues, ends and D or L forms follow the SMILES beside them. *: point of attachment. Oxazole(5-CO) = O=C(c1cnco1)*
What was measured:
AF9 YEATS domain [1] = molecular target: T1, AF9 YEATS domain (Homo sapiens, UniProt P42568); assay: Photo-cross-linking-based competition assay (photoaffinity probe, click chemistry, in-gel fluorescence); format: binding; conditions: for IC50: competition with photoaffinity probe, in-gel fluorescence
T1 construct: His-AF9 (1-138); His (N); made in house; host or cells: E. coli Rosetta
T1 sequence (P42568 1-138): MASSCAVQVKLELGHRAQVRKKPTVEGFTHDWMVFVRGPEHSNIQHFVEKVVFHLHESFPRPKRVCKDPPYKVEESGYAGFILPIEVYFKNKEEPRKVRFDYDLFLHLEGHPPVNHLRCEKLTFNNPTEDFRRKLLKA
Protocol: Mobile phase used were water with 0.1% trifluoroacetic acid (buffer A) and 90% acetonitrile in water with 0.1% trifluoroacetic acid (buffer B). The purity (>95%) and identity of peptides were confirmed by LC-MS. The inhibitory activities of the inhibitors were determined by a photo-cross-linking-based competition assay. […] The reactions were incubated for 1 h at r.t . . . . The reactions were quenched by adding 5 volumes of ice-cold acetone and placed at −20° C. overnight to precipitate proteins. After protein precipitation, samples were centrifuged at 6000×g for 5 min at 4° C. The supernatant was discarded and the pellet was washed with ice-cooled methanol twice and air-dried for 10 min. […] Samples were then resolved by SDS-PAGE. The labeled proteins were visualized by scanning the gel on a Typhoon 9410 variable mode imager (excitation 532 nm, emission filter 580 nm). A photo-cross-linking based method was used in this study to estimate inhibitory activity (FIG. 28). This method requires the use of a photoaffinity probe. The probe (probe 1 (SEQ ID NO:48), see below) is derived from a crotonylated peptide, ligand of the protein, carrying a photo-cross-linker and a terminal alkyne as bioorthogonal. The YEATS domain is incubated and bound to the probe through Kcr-dependent recognition. Upon UV-irradiation, the photo-cross-linker is activated and rapidly cross-linked to the protein, converting the non-covalent protein-probe interaction into a covalent linkage. The probe-labeled protein is subsequently conjugated to an azide-functionalized fluorescence dye (for example, rhodamine-N3, Rho-N3) via Cu(I)-catalyzed azide-alkyne cycloaddition (CuAAC, or “click” chemistry). After SDS-PAGE, the protein can be visualized by in-gel fluorescence scanning. If photo-cross-linking of the YEATS domain with photoaffinity probe is performed in the presence of an inhibitor, which occupies the Kcr binding pocket of the YEATS domain and thus inhibits the protein-probe interaction, the percentage of the YEATS domain in the sample that is labeled by the probe will be reduced. The in-gel fluorescence intensity detected will also be decreased. By varying the concentration of inhibitor added in the sample and quantifying the resulting fluorescence intensities, a competition curve of the inhibitor toward the protein-probe interaction will be obtained, which can be used to estimate the IC50 value. Due to the covalent nature of photo-cross-linking, weak protein-protein interactions can be captured and eventually visualized. The protein concentration used in the assay can be as low as several nanograms per microliter, while the fluorescence signal can still be robustly detected and quantified.

YEATS2 domain = molecular target: T2, YEATS2 domain (Homo sapiens, UniProt Q9ULM3); assay: Photo-cross-linking-based competition assay; format: binding; conditions: competition with photoaffinity probe, in-gel fluorescence
T2 construct: His-SUMO-YEATS2 (201-332); His (N); SUMO (N); made in house; host or cells: E. coli Rosetta
T2 sequence (Q9ULM3 201-332): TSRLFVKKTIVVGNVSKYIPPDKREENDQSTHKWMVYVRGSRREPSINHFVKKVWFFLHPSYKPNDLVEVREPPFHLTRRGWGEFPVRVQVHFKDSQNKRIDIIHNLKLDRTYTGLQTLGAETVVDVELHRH
Protocol: (§1) Peptides were synthesized on a Rink-Amide MBHA resin followed by a standard Fmoc-based solid-phase peptide synthesis protocol. After all amino acids were coupled, protecting groups and cleavage of peptides from the resin were done by incubating the resin with a cleavage cocktail containing 95% trifluoroacetic acid, 2.5% triisopropylsilane, 1.5% H2O and, 1% thioanisole for 2 h. Peptides were purified by preparative HPLC with an XBridge Prep OBDTM C18 column (30 mm×250 mm, 10 μm, Waters). Mobile phase used were water with 0.1% trifluoroacetic acid (buffer A) and 90% acetonitrile in water with 0.1% trifluoroacetic acid (buffer B). The purity (>95%) and identity of peptides were confirmed by LC-MS. The inhibitory activities of the inhibitors were determined by a photo-cross-linking-based competition assay.
(§2) The probe 4.1 or 4.2 (2 μM) with indicated concentrations of different inhibitors was incubated with YEATS domain proteins (5 or 20 ng/μL) in binding buffer (50 mM HEPES, 150 mM NaCl, 2 mM MgCl2, 0.1% Tween-20, 20% glycerol, pH 7.5, with or without 50 ng/μL BSA) for 10 min at 4° C. Then, the samples were irradiated at 365 nm using a UV lamp for 20 min in a 96-well plate on ice.
(§3) To the prepared photo-cross-linking samples, 100 μM Rho-N3 (10 mM stock in DMSO) was added, followed by 1 mM TCEP (freshly prepared 50 mM stock in H2O), 100 μM TBTA (10 mM stock in DMSO), and finally the reactions were initiated by the addition of 1 mM CuSO4 (freshly prepared 50 mM stock in H2O). The reactions were incubated for 1 h at r.t . . . . The reactions were quenched by adding 5 volumes of ice-cold acetone and placed at −20° C. overnight to precipitate proteins.
(§4) After protein precipitation, samples were centrifuged at 6000×g for 5 min at 4° C. The supernatant was discarded and the pellet was washed with ice-cooled methanol twice and air-dried for 10 min. The proteins were resuspended in 1×LDS sample loading buffer (Invitrogen) with 50 mM DTT, and heated at 80° C. for 8 min. Samples were then resolved by SDS-PAGE. The labeled proteins were visualized by scanning the gel on a Typhoon 9410 variable mode imager (excitation 532 nm, emission filter 580 nm).
(§5) A photo-cross-linking based method was used in this study to estimate inhibitory activity (FIG. 28). This method requires the use of a photoaffinity probe. The probe (probe 1 (SEQ ID NO:48), see below) is derived from a crotonylated peptide, ligand of the protein, carrying a photo-cross-linker and a terminal alkyne as bioorthogonal.
(§6) The YEATS domain is incubated and bound to the probe through Kcr-dependent recognition. Upon UV-irradiation, the photo-cross-linker is activated and rapidly cross-linked to the protein, converting the non-covalent protein-probe interaction into a covalent linkage. The probe-labeled protein is subsequently conjugated to an azide-functionalized fluorescence dye (for example, rhodamine-N3, Rho-N3) via Cu(I)-catalyzed azide-alkyne cycloaddition (CuAAC, or “click” chemistry). After SDS-PAGE, the protein can be visualized by in-gel fluorescence scanning. If photo-cross-linking of the YEATS domain with photoaffinity probe is performed in the presence of an inhibitor, which occupies the Kcr binding pocket of the YEATS domain and thus inhibits the protein-probe interaction, the percentage of the YEATS domain in the sample that is labeled by the probe will be reduced. The in-gel fluorescence intensity detected will also be decreased. By varying the concentration of inhibitor added in the sample and quantifying the resulting fluorescence intensities, a competition curve of the inhibitor toward the protein-probe interaction will be obtained, which can be used to estimate the IC50 value. Due to the covalent nature of photo-cross-linking, weak protein-protein interactions can be captured and eventually visualized. The protein concentration used in the assay can be as low as several nanograms per microliter, while the fluorescence signal can still be robustly detected and quantified. […]

GAS41 YEATS domain = molecular target: T3, GAS41 YEATS domain (Homo sapiens, UniProt O95619); assay: Photo-cross-linking-based competition assay; format: binding; conditions: competition with photoaffinity probe, in-gel fluorescence
T3 construct: His-Gas41 (15-159); His (N); made in house; host or cells: E. coli Rosetta
T3 sequence (O95619 15-159): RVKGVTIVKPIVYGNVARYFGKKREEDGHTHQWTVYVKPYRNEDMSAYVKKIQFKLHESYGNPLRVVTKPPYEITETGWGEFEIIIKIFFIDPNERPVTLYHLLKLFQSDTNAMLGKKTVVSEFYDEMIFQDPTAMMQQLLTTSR
Protocol: as §1, §2, §3, §4, §5, §6

ENL = molecular target: T4, ENL (Homo sapiens, UniProt Q03111); assay: Cellular thermal shift assay (CETSA) in MOLM-13 (FLAG-ENL) cells; format: cell-based; conditions: MOLM13 (FLAG-ENL), 50 μM, 16 hours, anti-FLAG
T4 construct: expressed in transfected cells; host or cells: MOLM-13 (FLAG-ENL) cells
T4 sequence (Q03111 1-559): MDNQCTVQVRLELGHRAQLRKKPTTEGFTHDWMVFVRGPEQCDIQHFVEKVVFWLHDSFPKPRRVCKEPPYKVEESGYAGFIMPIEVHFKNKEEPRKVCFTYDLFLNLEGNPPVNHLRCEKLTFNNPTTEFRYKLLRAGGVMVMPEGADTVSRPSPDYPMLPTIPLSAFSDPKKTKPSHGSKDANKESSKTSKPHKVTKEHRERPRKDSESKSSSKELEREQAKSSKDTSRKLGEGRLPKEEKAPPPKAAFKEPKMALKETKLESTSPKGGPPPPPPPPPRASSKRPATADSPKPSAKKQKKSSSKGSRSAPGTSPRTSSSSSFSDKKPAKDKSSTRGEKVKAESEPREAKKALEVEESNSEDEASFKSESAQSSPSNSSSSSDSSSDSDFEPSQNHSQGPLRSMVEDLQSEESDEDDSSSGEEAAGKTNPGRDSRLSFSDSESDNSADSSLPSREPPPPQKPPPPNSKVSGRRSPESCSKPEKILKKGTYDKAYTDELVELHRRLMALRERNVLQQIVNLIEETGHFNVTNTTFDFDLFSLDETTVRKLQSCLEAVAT
Protocol: We next applied the cellular thermal shift assay (CETSA) to examine if XL-13m was cell permeable and could target ENL in living cells. MOLM-13 (FLAG-ENL) were treated with XL-13m for […] and then heated at different temperature to denature and precipitate proteins. […] Soluble proteins were extracted by freeze-thaw cycle and subjected to western blotting analysis.
MOLM13 (FLAG-ENL) cells were incubated with or without 50 μM compound for 16 hours and then were collected for cellular thermal shift assay (CETSA) as previously reported. Anti-FLAG antibody was used to detect ENL proteins and γ-actin blotting served as negative control.

ENL YEATS domain [2] = molecular target: T5, ENL YEATS domain (Homo sapiens, UniProt Q03111); assay: Photo-cross-linking-based competition assay; format: binding; conditions: for IC50: competition with photoaffinity probe, in-gel fluorescence
T5 construct: His-SUMO-ENL (1-138); His (N); SUMO (N); made in house; host or cells: E. coli Rosetta
T5 sequence (Q03111 1-138): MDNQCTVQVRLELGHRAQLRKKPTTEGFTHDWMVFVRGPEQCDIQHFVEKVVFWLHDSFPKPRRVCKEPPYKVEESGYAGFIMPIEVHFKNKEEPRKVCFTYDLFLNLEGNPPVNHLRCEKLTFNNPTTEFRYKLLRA

AF9 YEATS domain [3] = molecular target: T1, AF9 YEATS domain; assay: Isothermal titration calorimetry (ITC); format: binding; conditions: ITC
Protocol: (§7) ^1H and ^13C NMR spectra were recorded on Bruker UltraShield 400 or 600 MHz spectrometers and were calibrated using residual undeuterated solvent as an internal reference. Chemical shifts were reported in ppm, and coupling constant J was reported in Hz. Peptides were analyzed by LC-MS with an Agilent 1260 Infinity HPLC system connected to a Thermo Finnigan LCQ DecaXP MS detector. Peptides were purified on a preparative HPLC system with Waters 2535 Quaternary Gradient Module, Waters 515 HPLC pump, Waters SFO System Fluidics Organizer, and Waters 2767 Sample Manager. Photo-cross-linking was performed with an ENF-260C/FE hand-hang UV lamp (Spectroline). In-gel fluorescence scanning was performed using a Typhoon 9410 variable mode imager from GE Healthcare Life Sciences (excitation 532 nm, emission 580 nm). Images of Coomassie blue staining were acquired by MyECL Imager from Thermo Scientific. All images were processed by ImageJ software (National Institutes of Health), and contrast was adjusted appropriately. ITC experiments were performed with a MicroCal iTC200 titration calorimeter (MicroCal). IC50 and dissociation constants were fit with Origin 7.0 software package (OriginLab).
To further validate the reliability of the results obtained from the photo-cross-linking-based competition assay, we performed isothermal titration calorimetry (ITC) to determine the direct binding affinities of the inhibitors toward the AF9 YEATS domain. […] The ITC measurements were in agreement with the IC50 data, indicating the reliability of the results obtained from the photo-cross-linking-based competition assay.

ENL YEATS domain [4] = molecular target: T5, ENL YEATS domain; assay: Isothermal titration calorimetry (ITC); format: binding
Protocol: as §7
The compound Cyclic 3 was also tested with AF9 and ENL YEATS domains.

Row | IC50 (AF9 YEATS domain [1]) [µM] | IC50 (YEATS2 domain) [µM] | IC50 (GAS41 YEATS domain) [µM] | IC50 (ENL YEATS domain [2]) [µM] | Kd (AF9 YEATS domain [3]) [µM] | Kd (ENL YEATS domain [4]) [µM] | activity drop on ENL compared to AF9 (ENL YEATS domain [2]; ratio of IC50 values) [fold] | SMILES | thermal shift: targeting of ENL protein in living cells (ENL) | activity on AF9 weaker than on ENL (AF9 YEATS domain [1]; ratio of IC50 values) [fold]
1 | 0.24 | 98.7 | 14.5 |  |  |  |  | C[C@H](NC(=O)[C@@H](NC(=O)[C@H](CCC(N)=O)NC(=O)OCc1ccccc1)[C@@H](C)O)C(=O)N[C@@H](CCCNC(=N)N)C(=O)N[C@@H](CCCCNC(=O)c1cnco1)C(N)=O [Compound 27] |  | 
2 |  |  |  |  |  |  |  | CC(=O)N[C@@H](C)C(=O)N[C@@H](C)C(=O)N[C@@H](CCCNC(=N)N)C(=O)N[C@@H](CCCCNC(=O)c1cnco1)C(N)=O [Compound 40] (Ac-AARK(Oxazole(5-CO))-NH2) | revealed the target of ENL protein | 6.1
3 |  | 22.7 | 53.7 | 12.9 | 0.52 | 11.4 |  | C[C@@H]1NC(=O)[C@H]([C@H](C)O)NC(=O)[C@@H](NC(=O)OCc2ccccc2)CCCCNC(=N)NCCC[C@H](C(=O)N[C@@H](CCCCNC(=O)c2cnco2)C(N)=O)NC1=O [Compound 80] |  | 
4 | 0.26 | 42.4 | 123 | 1.3 |  |  | 5 | C[C@H](NC(=O)[C@@H](NC(=O)[C@H](CCC(N)=O)NC(=O)OCc1ccccc1)[C@@H](C)O)C(=O)N[C@@H](CCCNC(=N)N)C(=O)N[C@@H](CCCCNC(=O)c1ccco1)C(N)=O [Compound 26] |  | 

From patent US11512111B2, “Yeats inhibitors and methods of use thereof” (The University of Hong Kong, priority 2017, dated 2022)
